In patent US9394290B2, “Selective CYP11B1 inhibitors for the treatment of cortisol dependent diseases” (UNIVERSITAET DES SAARLANDES CAMPUS SAARBRUECKEN, priority 2010, dated 2016):

Columns and labels:
human CYP11B2 = human CYP11B2 (Homo sapiens (Human), UniProt P19099); assay: Cellular assay for CYP11B2 inhibition (V79MZh11B2 hamster fibroblasts, substrate 11-deoxycorticosterone); conditions: for IC50: read-out: IC50 value CYP11B2, Hamster fibroblasts expressing human CYP11B2, 100 nM, mean of at least three experiments, n.i. = no inhibition at an inhibitor concentration of 500 nM
human CYP11B2, sequence (P19099 25-503): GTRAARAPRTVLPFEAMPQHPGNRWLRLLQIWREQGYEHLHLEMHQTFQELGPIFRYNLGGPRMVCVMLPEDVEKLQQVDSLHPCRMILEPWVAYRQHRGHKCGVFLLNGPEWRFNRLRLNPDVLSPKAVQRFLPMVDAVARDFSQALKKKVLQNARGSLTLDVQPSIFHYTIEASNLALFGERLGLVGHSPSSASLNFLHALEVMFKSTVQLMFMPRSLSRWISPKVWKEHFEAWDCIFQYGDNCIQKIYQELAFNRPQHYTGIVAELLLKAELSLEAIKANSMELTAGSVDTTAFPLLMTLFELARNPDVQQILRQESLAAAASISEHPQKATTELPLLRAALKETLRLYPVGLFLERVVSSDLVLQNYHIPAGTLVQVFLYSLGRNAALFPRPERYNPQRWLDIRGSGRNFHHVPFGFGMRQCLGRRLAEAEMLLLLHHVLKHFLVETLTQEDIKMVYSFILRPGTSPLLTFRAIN

human CYP11B1 = human CYP11B1 (Homo sapiens (Human), UniProt P15538); assay: Cellular assay for CYP11B1 inhibition (V79MZh11B1 hamster fibroblasts, substrate 11-deoxycorticosterone); conditions: for sf: selectivity factor: IC50 (CYP11B2)/IC50 (CYP11B1): ratio IC50 (CYP11B2)/IC50 (CYP11B1); for IC50: read-out: IC50 value CYP11B1, Hamster fibroblasts expressing human CYP11B1, substrate 11-deoxycorticosterone, 100 nM, mean of at least three experiments
human CYP11B1, sequence (P15538 25-503): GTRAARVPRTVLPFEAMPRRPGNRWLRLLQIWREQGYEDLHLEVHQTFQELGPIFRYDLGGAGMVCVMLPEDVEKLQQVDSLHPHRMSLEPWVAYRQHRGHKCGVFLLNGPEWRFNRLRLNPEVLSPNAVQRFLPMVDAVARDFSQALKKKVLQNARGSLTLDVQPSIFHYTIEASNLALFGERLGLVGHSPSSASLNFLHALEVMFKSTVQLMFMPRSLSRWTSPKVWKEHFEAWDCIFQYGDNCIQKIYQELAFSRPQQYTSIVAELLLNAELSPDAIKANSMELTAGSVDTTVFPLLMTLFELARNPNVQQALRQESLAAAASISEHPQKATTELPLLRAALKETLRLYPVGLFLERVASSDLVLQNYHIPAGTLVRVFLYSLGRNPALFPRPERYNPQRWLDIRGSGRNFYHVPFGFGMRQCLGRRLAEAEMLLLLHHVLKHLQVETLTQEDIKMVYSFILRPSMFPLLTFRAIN

human CYP17 = human CYP17 (Homo sapiens (Human), UniProt P05093); assay: CYP17 inhibition assay (membrane fraction of E. coli expressing human CYP17, substrate progesterone); type: biochemical; conditions: 25 μM, inhibitor concentration 2.0 μM, read-out: inhibition (%) CYP 17
human CYP17, sequence (P05093 whole entry): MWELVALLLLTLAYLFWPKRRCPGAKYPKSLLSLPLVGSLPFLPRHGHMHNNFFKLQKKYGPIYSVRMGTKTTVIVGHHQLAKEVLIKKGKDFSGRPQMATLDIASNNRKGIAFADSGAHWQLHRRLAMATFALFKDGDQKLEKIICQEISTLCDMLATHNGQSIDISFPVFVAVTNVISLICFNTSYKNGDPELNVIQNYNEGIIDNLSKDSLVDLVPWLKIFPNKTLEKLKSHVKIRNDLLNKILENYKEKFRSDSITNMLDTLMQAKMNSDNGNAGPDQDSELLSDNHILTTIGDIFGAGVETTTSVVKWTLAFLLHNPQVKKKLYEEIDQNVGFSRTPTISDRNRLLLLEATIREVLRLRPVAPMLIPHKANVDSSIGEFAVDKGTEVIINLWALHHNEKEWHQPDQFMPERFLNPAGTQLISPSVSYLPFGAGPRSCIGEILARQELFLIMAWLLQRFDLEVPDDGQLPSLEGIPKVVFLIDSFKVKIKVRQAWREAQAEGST
Experimental: Recombinant E. coli pJL17/OR coexpressing human CYP17 and rat NADPH-P450-reductase were grown and stored as described by Ehmer et al. (J. Steroid Biochem. Mol. Biol., 2000, 75, 57-63)
For isolation of membrane fractions, 5 ml of bacterial suspension with an OD578 of 50 were washed using phosphate buffer (0.05 M, pH 7.4, 1 mM MgCl2, 0.1 mM EDTA and 0.1 mM dithiothreitol). Bacteria were harvested by centrifugation (2000×g) and the pellet was resuspended in 10 ml ice-cold TES buffer (0.1 M tris-acetate, pH 7.8, 0.5 mM EDTA, 0.5 M sucrose). Lysozyme was added with 10 ml of ice-cold water resulting in a concentration of 0.2 mg/ml followed by incubation for 30 min on ice with continuous shaking. Spheroplasts were harvested by centrifugation (12000×g, 10 min), and resuspended in 4 ml of ice-cold phosphate buffer (the same as described above plus 0.5 mM phenylmethylsulfonylfluoride (PMSF)).
After that spheroplasts were sonicated on ice (pulse 20 s on, 30 s off, five times), using a sonicator Sonopuls HD60 (Bandelin, Berlin, Germany) at maximum power. Unbroken cells and debris were pelleted at 3000×g for 7 min, and the supernatant was centrifuged at 50000×g for 20 min at 4° C. The membrane pellet was resuspended in 2 ml of phosphate buffer (the same as described above) with 20% glycerol using an ultra-turrax T25 (IKA-Labortechnik, Staufen, Germany). Protein concentration was determined by the method of Lowry.
The assay was performed as follows: a solution of 6.25 nmol progesterone (in 5 μl methanol) in 140 μl phosphate buffer (0.05 M, pH 7.4, 1 mM MgCl2, 0.1 mM EDTA and 0.1 mM dithiothreitol), 50 μl NADPH generating system (in phosphate buffer with 10 mM NADP, 100 mM glucose-6-phosphate and 2.5 units of glucose-6-phosphate-dehydrogenase) and inhibitor (in 5 μl DMSO) was pre-incubated at 37° C. for 5 min. Control cups were supplemented with 5 μl DMSO without inhibitor. The reaction was started by adding 50 μl of a 1:5 diluted membrane suspension in phosphate buffer (0.8-1.0 mg protein per ml). The maximum DMSO concentration in each sample was 2%. After mixing, incubation was performed for 30 min at 37° C. Subsequently the reaction was stopped with 50 μl 1 N HCl.
Extraction of the steroids was performed by addition of 1.0 ml ethyl acetate and vigorous shaking for 1 min. After a centrifugation step (5 min, 2500×g) the organic phase (0.9 ml) was transferred into a fresh cup containing 0.25 ml of incubation buffer and 50 μl 1 N HCl and mixed again. After centrifugation, 0.8 ml ethyl acetate solution was evaporated to dryness in a fresh cup. After that the steroids were redissolved in solvent for HPLC analysis (Hutschenreuter et. al. J. Enz. Inhib. Med. Chem. 2004, 19, 17-32).
The above experiment was conducted at least three times and a mean value for the CYP17 inhibition calculated.

Human placental CYP19 = Human placental CYP19 (Homo sapiens (Human), UniProt P11511); assay: CYP19 (aromatase) assay, human placental microsomes, 3H2O release; type: biochemical; conditions: substrate androstenedione, 500 nM, inhibitor concentration 500 nM, read-out: inhibition (%) CYP 19
Human placental CYP19, sequence (P11511 whole entry): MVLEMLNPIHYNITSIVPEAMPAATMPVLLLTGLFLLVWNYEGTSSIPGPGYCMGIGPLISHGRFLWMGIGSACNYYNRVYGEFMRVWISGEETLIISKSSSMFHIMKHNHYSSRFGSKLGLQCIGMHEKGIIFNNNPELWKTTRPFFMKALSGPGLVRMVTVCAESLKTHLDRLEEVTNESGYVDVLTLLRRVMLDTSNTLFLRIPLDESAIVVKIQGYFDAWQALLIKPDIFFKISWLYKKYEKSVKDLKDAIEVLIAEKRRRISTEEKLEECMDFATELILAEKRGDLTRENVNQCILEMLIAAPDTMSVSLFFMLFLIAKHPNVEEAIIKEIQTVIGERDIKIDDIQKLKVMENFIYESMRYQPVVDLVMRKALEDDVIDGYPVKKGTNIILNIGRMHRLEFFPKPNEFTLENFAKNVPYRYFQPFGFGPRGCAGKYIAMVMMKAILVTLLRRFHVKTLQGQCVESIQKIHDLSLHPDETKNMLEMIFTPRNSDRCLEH
Experimental: The enzyme was obtained from the microsomal fraction of freshly delivered human term placental tissue according to the procedure of Thompson and Siiteri (Thompson, E. A.; Siiteri, P. K. J. Biol. Chem. 1974, 249, 5364).
The isolated microsomes were suspended in a minimum volume of phosphate buffer (0.05 M, pH 7.4, 20% glycerol). Additionally, DTT (dithiothreitol, 10 mM) and EDTA (1 mM) were added to protect the enzyme from degradation. The enzyme preparation was stored at −70° C.
The assay was performed monitoring enzyme activity by measuring the ^3H2O formed from [1β-^3H]androstenedione during aromatization (Hartmann et al. J. Med. Chem. 1986, 29, 1362-1369). […] The test compounds were dissolved in DMSO and diluted with buffer. The final DMSO concentration in the control and inhibitor incubation was 2%. Each tube was pre-incubated for 5 min at 30° C. in a water bath. Microsomal protein was added to start the reaction (0.1 mg). The total volume for each incubation was 0.25 ml. The reaction was terminated by the addition of 200 μl of a cold 1 mM HgCl2 solution. After addition of 200 μl of an aqueous dextran-coated charcoal (DCC) suspension (2%), the vials were shaken for 20 min and centrifuged at 1500×g for 5 min to separate the charcoal-absorbed steroids. The supernatant was assayed for ^3H2O by counting in a scintillation mixture using a β-counter. The calculation of the IC50 values was performed by plotting the percent inhibition vs. the concentration of inhibitor on a semi-log plot.
The above experiment was conducted at least three times and a mean value for the CYP19 inhibition calculated.

SMILES	IC50 (human CYP11B2) [nM]	sf: selectivity factor: IC50 (CYP11B2)/IC50 (CYP11B1) (human CYP11B1)	IC50 (human CYP11B1) [nM]	inhibition at 2 µM (human CYP17) [%]	inhibition at 0.5 µM (Human placental CYP19) [%]	IC50 value CYP11B2 (human CYP11B2; Hamster fibroblasts expressing human CYP11B2, 100 nM, mean of at least three experiments, n.i. = no inhibition at an inhibitor concentration of 500 nM)
c1ccc(-c2ccc(Cn3ccnc3)cn2)cc1 [Compound 1, 5-Imidazol-1-ylmethyl-2-phenyl-pyridine]	2770	18	152			
Brc1ccc(Cn2ccnc2)cn1 [Compound 1a, 5-Imidazol-1-ylmethyl-2-bromopyridine]	> 1000		500			
c1cc(Cn2ccnc2)ccn1 [Compound 2, 4-Imidazol-1-ylmethyl-pyridine]	> 1000		663			
c1cncc(Cn2ccnc2)c1 [Compound 3, 3-Imidazol-1-ylmethyl-pyridine]	> 1000		816			
N#Cc1ncccc1Cn1ccnc1 [Compound 4, 3-Imidazol-1-ylmethyl-pyridine-2-carbonitrile]	> 1000		971			
Brc1ncccc1Cn1ccnc1 [Compound 5, 2-Bromo-3-imidazol-1-ylmethyl-pyridine]	911	15	61	3	2	
Clc1ncc(Cn2ccnc2)cc1Br [Compound 6, 3-Bromo-2-chloro-5-imidazol-1-ylmethyl-pyridine]	576	3.4	168			
Fc1ccccc1-c1ccc(Cn2ccnc2)cn1 [Compound 7, 2-(2-Fluoro-phenyl)-5-imidazol-1-ylmethyl-pyridine]	1740	24	72	3	0	
Fc1cccc(-c2ccc(Cn3ccnc3)cn2)c1 [Compound 8, 2-(3-Fluoro-phenyl)-5-imidazol-1-ylmethyl-pyridine]	> 1000		320	1		
Fc1ccc(-c2ccc(Cn3ccnc3)cn2)cc1 [Compound 9, 2-(4-Fluoro-phenyl)-5-imidazol-1-ylmethyl-pyridine]	2150	10	213	5		
Fc1ccc(-c2ccc(Cn3ccnc3)cn2)cc1F [Compound 10, 2-(3,4-Difluoro-phenyl)-5-imidazol-1-ylmethyl-pyridine]	1660	5	329	0		
Oc1ccc(-c2ccc(Cn3ccnc3)cn2)cc1F [Compound 11, 2-Fluoro-4-(5-imidazol-1-ylmethyl-pyridin-2-yl)-phenol]	237	14	17	2.6	0	
COc1ccc(-c2ccc(Cn3ccnc3)cn2)cc1 [Compound 13, 5-Imidazol-1-ylmethyl-2-(4-methoxy-phenyl)pyridine]	> 1000		782	0		
COc1ccc(-c2ccc(Cn3ccnc3)cn2)cc1OC [Compound 14, 2-(3,4-Dimethoxy-phenyl)-5-imidazol-1-ylmethyl-pyridine]	> 1000		> 1000	2		
N#Cc1cccc(-c2ccc(Cn3ccnc3)cn2)c1 [Compound 19, 3-(5-Imidazol-1-ylmethyl-pyridin-2-yl)-benzonitrile]	> 1000		409			
N#Cc1ccc(-c2ccc(Cn3ccnc3)cn2)cc1 [Compound 20, 4-(5-Imidazol-1-ylmethyl-pyridin-2-yl)-benzonitrile]	> 1000		782			
O=Cc1ccc(-c2ccc(Cn3ccnc3)cn2)cc1 [Compound 21, 4-(5-Imidazol-1-ylmethyl-pyridin-2-yl)-benzaldehyde]	> 1000		246	0		
c1ccc2cc(-c3ccc(Cn4ccnc4)cn3)ccc2c1 [Compound 24, 5-Imidazol-1-ylmethyl-2-naphthalen-2-yl-pyridine]	782	3.2	246			
c1cncc(-c2ccc(Cn3ccnc3)cn2)c1 [Compound 26, 5-Imidazol-1-ylmethyl-[2,3′]bipyridinyl]	3960	8	502			
c1cc(-c2ccc(Cn3ccnc3)cn2)ccn1 [Compound 27, 5-Imidazol-1-ylmethyl-[2,4′]bipyridinyl]	487	3.5	139			
c1cn(Cc2ccc(-c3cncnc3)nc2)cn1 [Compound 28, 5-(5-Imidazol-1-ylmethyl-pyridin-2-yl)-pyrimidine]			971			n.i.^d
COc1ccc(-c2ccc(Cn3ccnc3)cn2)cn1 [Compound 29, 5-Imidazol-1-ylmethyl-6′-methoxy-[2,3′]bipyridinyl]	> 1000		> 1000			
c1ccc2c(-c3ccc(Cn4ccnc4)cn3)cncc2c1 [Compound 30, 4-(5-Imidazol-1-ylmethyl-pyridin-2-yl)-isoquinoline]	914	10	95			
Clc1ccc(-c2ccc(Cn3ccnc3)cn2)s1 [Compound 33, 2-(5-Chloro-thiophen-2-yl)-5-imidazol-1-ylmethyl-pyridine]	929	2.6	362			
c1ccc2sc(-c3ccc(Cn4ccnc4)cn3)cc2c1 [Compound 37, 2-Benzo[b]thiophen-2-yl-5-imidazol-1-ylmethyl-pyridine]	281	1.0	269			
c1ccc2oc(-c3ccc(Cn4ccnc4)cn3)cc2c1 [Compound 41, 2-Benzo[b]furan-2-yl-5-imidazol-1-ylmethyl-pyridine]	> 1000		500			
CCOC(=O)c1cncn1[C@H](C)c1ccccc1 [ETO, etomidate, reference compound]	0.1					
